Like-named read-outs stand apart in the source and are kept apart here.
Key:
[1] = molecular target: T1, human GLP-1 receptor (Homo sapiens, UniProt P43220); test: GLP-1 receptor binding: competitive binding assay (125I-GLP-1, SPA) on isolated membranes at low and high HSA
T1 construct: expressed in transfected cells; host or cells: BHK cells (parent line BHKTS13), clone FCW467-12A; membrane preparation

[2] = molecular target: T1, human GLP-1 receptor; test: In vitro potency: CRE luciferase reporter gene assay in BHK cells expressing the human GLP-1 receptor; type: cell-based
In short: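 Whole-cell assay in stably transfected BHK cells carrying CRE-driven firefly luciferase, 5×10^3 cells/well, in assay buffer with 2% ovalbumin and 0.2% Pluronic F-68. Compound working solutions were 0.2 μM.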

[3] = Pharmacokinetic study in minipigs (i.v.); details: male, Göttingen, minipig, in vivo, iv
Method: The purpose of this study is to determine the protraction in vivo of the GLP-1 derivatives after i.v. administration to minipigs, i.e. the prolongation of their time in the body and thereby their time of action. This is done in a pharmacokinetic (PK) study, where the terminal half-life of the derivative in question is determined. By terminal half-life is meant the time it takes to halve a certain plasma concentration in the terminal elimination phase.
Male Göttingen minipigs were obtained from Ellegaard Göttingen Minipigs (Dalmose, Denmark) approximately 7-14 months of age and weighing approximately 16-35 kg were used in the studies. The minipigs were housed either individually (pigs with permanent catheters) or in a group and fed restrictedly once or twice daily with SDS minipig diet (Special Diets Services, Essex, UK).
After at least 2 weeks of acclimatisation two permanent central venous catheters were implanted in vena cava caudalis or cranialis in each animal. The animals were allowed 1 week recovery after the surgery, and were then used for repeated pharmacokinetic studies with a suitable wash-out period between successive GLP-1 derivative dosings.
Blood samples (for example 0.8 ml) were collected in EDTA buffer (8 mM) and then centrifuged at 4° C. and 1942G for 10 minutes.
Plasma was pipetted into Micronic tubes on dry ice, and kept at −20° C. until analysed for plasma concentration of the respective GLP-1 compound using LOCI. Individual plasma concentration-time profiles were analyzed by a non-compartmental pharmacokinetic method in Phoenix v. 6.2 (Pharsight Inc., Mountain View, Calif., USA), or other relevant software for PK analysis, and the resulting terminal half-lives (harmonic mean) determined.

[4] = Low HSA IC50, low HSA (max. 0.001% final assay concentration)
[5] = high HSA (2.0% final assay concentration), read-out: High HSA IC50
[6] = whole cell reporter gene assay, BHK cells, human GLP-1 receptor, average of at least two replicates, read-out: EC50

T1 sequence (P43220 24-463): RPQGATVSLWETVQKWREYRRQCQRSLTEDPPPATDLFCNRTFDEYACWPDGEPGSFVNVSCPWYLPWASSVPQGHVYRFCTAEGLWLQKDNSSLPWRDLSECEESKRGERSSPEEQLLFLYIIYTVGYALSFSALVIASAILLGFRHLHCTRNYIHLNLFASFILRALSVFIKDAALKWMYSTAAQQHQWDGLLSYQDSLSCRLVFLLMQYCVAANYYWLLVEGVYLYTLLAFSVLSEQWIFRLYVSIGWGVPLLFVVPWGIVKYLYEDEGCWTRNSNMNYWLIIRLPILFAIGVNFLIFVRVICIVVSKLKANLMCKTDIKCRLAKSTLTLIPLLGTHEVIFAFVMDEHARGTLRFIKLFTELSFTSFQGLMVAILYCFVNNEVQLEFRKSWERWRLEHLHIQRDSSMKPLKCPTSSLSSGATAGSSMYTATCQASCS

Row | Compound | IC50 ([1]; High HSA IC50, high HSA (2.0% final assay concentration)) | IC50 [1, 4] | EC50 [2] | half-life ([3]; 5 nmol/kg) | IC50 [1, 5] | EC50 [2, 6] | half-life ([3]; 2 nmol/kg)
1 | CC[C@H](C)[C@H](NC(=O)[C@H](Cc1ccccc1)NC(=O)[C@H](CCC(=O)O)NC(=O)[C@H](CCCNC(=N)N)NC(=O)[C@H](C)NC(=O)[C@H](C)NC(=O)[C@H](CCC(N)=O)NC(=O)[C@H](CCC(=O)O)NC(=O)[C@H](CCC(=O)O)NC(=O)[C@H](CC(C)C)NC(=O)[C@H](Cc1ccc(O)cc1)NC(=O)[C@H](CO)NC(=O)[C@H](CO)NC(=O)[C@@H](NC(=O)[C@H](CC(=O)O)NC(=O)[C@H](CO)NC(=O)[C@@H](NC(=O)[C@H](Cc1ccccc1)NC(=O)[C@@H](NC(=O)CNC(=O)[C@H](CCC(=O)O)NC(=O)C(C)(C)NC(=O)[C@@H](N)Cc1c[nH]cn1)[C@@H](C)O)[C@@H](C)O)C(C)C)C(=O)N[C@@H](C)C(=O)N[C@@H](Cc1c[nH]c2ccccc12)C(=O)N[C@@H](CC(C)C)C(=O)N[C@H](C(=O)N[C@@H](CCCNC(=N)N)C(=O)NCC(=O)N[C@@H](CCCNC(=N)N)C(=O)N[C@@H](CCCCNC(=O)CN(CCCNC(=O)COCCOCCNC(=O)COCCOCCNC(=O)COCCOCCNC(=O)COCCOCCNC(=O)COCCOCCNC(=O)[C@@H](N)CCCCNC(=O)[C@@H](N)CCCCNC(=O)CCCNC(=O)CCCCCCCCCCCCCCCS(=O)(=O)O)CCCNC(=O)COCCOCCNC(=O)COCCOCCNC(=O)COCCOCCNC(=O)COCCOCCNC(=O)COCCOCCNC(=O)[C@@H](N)CCCCNC(=O)[C@@H](N)CCCCNC(=O)CCCNC(=O)CCCCCCCCCCCCCCCS(=O)(=O)O)C(=O)O)C(C)C [Example 9, N{Epsilon-37}-[2-[bis[3-[[2-[2-[2-[[2-[2-[2-[[2-[2-[2-[[2-[2-[2-[[2-[2-[2-[[(2S)-2-amino-6-[[(2S)-2-amino-6-[4-(16-sulfohexadecanoylamino)butanoylamino]hexanoyl]amino]hexanoyl]amino]ethoxy]ethoxy]acetyl]amino]ethoxy]ethoxy]acetyl]amino]ethoxy]ethoxy]acetyl]amino]ethoxy]ethoxy]acetyl]amino]ethoxy]ethoxy]acetyl]amino]propyl]amino]acetyl]-[Aib8,Glu22,Arg26,Arg34,Lys37]-GLP-1-(7-37)-peptide] | 29 nM | 0.16 nM | 0.0016 nM | 104 h |  |  | 
2 | CC[C@H](C)[C@H](NC(=O)[C@H](Cc1ccccc1)NC(=O)[C@H](CCC(=O)O)NC(=O)[C@H](CCCNC(=N)N)NC(=O)[C@H](C)NC(=O)[C@H](C)NC(=O)[C@H](CCC(N)=O)NC(=O)[C@H](CCC(=O)O)NC(=O)[C@H](CCC(=O)O)NC(=O)[C@H](CC(C)C)NC(=O)[C@H](Cc1ccc(O)cc1)NC(=O)[C@H](CO)NC(=O)[C@H](CO)NC(=O)[C@@H](NC(=O)[C@H](CC(=O)O)NC(=O)[C@H](CO)NC(=O)[C@@H](NC(=O)[C@H](Cc1ccccc1)NC(=O)[C@@H](NC(=O)CNC(=O)[C@H](CCC(=O)O)NC(=O)C(C)(C)NC(=O)[C@@H](N)Cc1c[nH]cn1)[C@@H](C)O)[C@@H](C)O)C(C)C)C(=O)N[C@@H](C)C(=O)N[C@@H](Cc1c[nH]c2ccccc12)C(=O)N[C@@H](CC(C)C)C(=O)N[C@H](C(=O)N[C@@H](CCCNC(=N)N)C(=O)NCC(=O)N[C@@H](CCCNC(=N)N)C(=O)N[C@@H](CCCCNC(=O)COCCOCCNC(=O)COCCOCCNC(=O)CN(CCCNC(=O)COCCOCCNC(=O)COCCOCCNC(=O)COCCOCCNC(=O)COCCOCCNC(=O)CC[C@H](NC(=O)[C@H]1CC[C@H](CNC(=O)CCCCCCCCCCCCCCCCCCC(=O)O)CC1)C(=O)O)CCCNC(=O)COCCOCCNC(=O)COCCOCCNC(=O)COCCOCCNC(=O)COCCOCCNC(=O)CC[C@H](NC(=O)[C@H]1CC[C@H](CNC(=O)CCCCCCCCCCCCCCCCCCC(=O)O)CC1)C(=O)O)C(=O)O)C(C)C [Example 11] |  | 0.35 nM |  |  | 33 nM | 0.017 nM | 160 h
3 | CC[C@H](C)[C@H](NC(=O)[C@H](Cc1ccccc1)NC(=O)[C@H](CCC(=O)O)NC(=O)[C@H](CCCNC(=N)N)NC(=O)[C@H](C)NC(=O)[C@H](C)NC(=O)[C@H](CCC(N)=O)NC(=O)[C@H](CCC(=O)O)NC(=O)[C@H](CCC(=O)O)NC(=O)[C@H](CC(C)C)NC(=O)[C@H](Cc1ccc(O)cc1)NC(=O)[C@H](CO)NC(=O)[C@H](CO)NC(=O)[C@@H](NC(=O)[C@H](CC(=O)O)NC(=O)[C@H](CO)NC(=O)[C@@H](NC(=O)[C@H](Cc1ccccc1)NC(=O)[C@@H](NC(=O)CNC(=O)[C@H](CCC(=O)O)NC(=O)C(C)(C)NC(=O)[C@@H](N)Cc1c[nH]cn1)[C@@H](C)O)[C@@H](C)O)C(C)C)C(=O)N[C@@H](C)C(=O)N[C@@H](Cc1c[nH]c2ccccc12)C(=O)N[C@@H](CC(C)C)C(=O)N[C@H](C(=O)N[C@@H](CCCNC(=N)N)C(=O)NCC(=O)N[C@@H](CCCNC(=N)N)C(=O)N[C@@H](CCCCNC(=O)COCCOCCNC(=O)COCCOCCNC(=O)COCCOCCNC(=O)COCCOCCNC(=O)CN(CCCNC(=O)COCCOCCNC(=O)COCCOCCNC(=O)CC[C@H](NC(=O)[C@H]1CC[C@H](CNC(=O)CCCCCCCCCCCCCCCCCCC(=O)O)CC1)C(=O)O)CCCNC(=O)COCCOCCNC(=O)COCCOCCNC(=O)CC[C@H](NC(=O)[C@H]1CC[C@H](CNC(=O)CCCCCCCCCCCCCCCCCCC(=O)O)CC1)C(=O)O)C(=O)O)C(C)C [Example 12] |  | 0.51 nM |  |  | 25 nM | 0.02 nM | 137 h
